Assay: Syringability testing (200 g weight on BD 1-mL syringe plunger, 27 G needle)
Format: physicochemical
Conditions: for Syringability of the saturated solutions (in words): undiluted solutions
Method: Syringability testing was carried out by applying 200 g of weight on top of a BD 1-mL syringe plunger and measuring the time required to expel 1 mL of the saturated solutions through a 27 G needle. The times are recorded in TABLE 4. At T=0, 43 seconds were required to expel 1 mL of Compound 2, while 8 seconds were required to expel 1 mL of Compound 4. In contrast, approximately 5 minutes were required to expel only 0.1 mL of Compound 3, based on the very high viscosity of the solution relative to that of the other two.
Syringability test results of the 50% diluted solutions (TABLE 5) indicated a slight increase in viscosity (syringability test for water was 10 sec). All three solutions remained easily syringable.

[1] = 50% diluted solution, T = 2 week
[2] = 50% diluted solution, T = 3 week
[3] = 50% diluted solution, T = 4 week
[4] = 50% diluted solution, T = 2 day
[5] = 50% diluted solution, T = 3 day
[6] = 50% diluted solution, T = 4 day
[7] = 50% diluted solution, T = 7 day
[8] = saturated (undiluted) solution, T = 0
[9] = saturated (undiluted) solution, T = 1 day
[10] = saturated (undiluted) solution, T = 2 day
[11] = saturated (undiluted) solution, T = 3 day

Row | Structure (SMILES) | Syringability: time to expel 1 mL [1] [s] | Syringability: time to expel 1 mL [2] [s] | Syringability: time to expel 1 mL [3] [s] | Syringability: time to expel 1 mL [4] [s] | Syringability: time to expel 1 mL [5] [s] | Syringability: time to expel 1 mL [6] [s] | Syringability: time to expel 1 mL [7] [s] | Syringability: time to expel 1 mL [8] [s] | Syringability: time to expel 1 mL [9] [s] | Syringability: time to expel 1 mL [10] [s] | Syringability: time to expel 1 mL [11] [s] | Syringability of the saturated solutions (in words) | Syringability: time to expel 1 mL (saturated (undiluted) solution, T = 2 week) [s] | Syringability: time to expel 1 mL (saturated (undiluted) solution, T = 3 week) [s] | Syringability: time to expel 1 mL (saturated (undiluted) solution, T = 4 week) [s] | Syringability: time to expel 1 mL (saturated (undiluted) solution, T = 4 day) [s] | Syringability: time to expel 1 mL (saturated (undiluted) solution, T = 5 day) [s] | Syringability: time to expel 1 mL (saturated (undiluted) solution, T = 6 day) [s]
1 | COC(=O)N(C)[C@@H](Cc1ccccc1)C(=O)N[C@@H](Cc1ccc(NS(=O)(=O)[O-])cc1)c1csc(-c2cccs2)n1.[Na+] [Compound 2, sodium (4-{(S)-2-{(S)-2-[(methoxycarbonyl)(methyl)amino]-3-phenylpropanamido}-2-[2-(thiophen-2-yl)thiazol-4-yl]ethyl}phenyl)sulfamate] | 14 | 11 | 11 | 10 | 15 | 18 | 15 | 43 | 52 | 65 | 58 | syringable |  |  |  |  |  | 
2 | COC(=O)N(C)[C@@H](Cc1ccccc1)C(=O)N(C)[C@@H](Cc1ccc(NS(=O)(=O)[O-])cc1)c1csc(-c2cccs2)n1.[Na+] [Compound 4, sodium (4-{(S)-2-{(S)-2-[(methoxycarbonyl)(methyl)amino]-N-methyl-3-phenylpropanamido}-2-[2-(thiophen-2-yl)thiazol-4-yl]ethyl}phenyl)sulfamate] | 13 | 13 | 14 | 12 | 14 | 15 | 12 | 8 | 12 | 15 | 12 | syringable | 13 | 12 | 13 | 13 | 14 | 14

From patent US12187715B2, “Small molecule activators of Tie-2” (EyePoint Pharmaceuticals, Inc., priority 2019, dated 2025)
